The test concerns the target T1, Piezo1 (Rattus norvegicus, UniProt Q0KL00).
T1 construct: native channel in INS-1 832/13 and BRIN-BD11 rat β-cell lines
The experiment in a line: fura-2 Ca2+ influx and whole-cell patch-clamp in INS-1 cells; Piezo1 siRNA reduced Yoda1-induced insulin release. In kind it is cell-based.

T1 sequence (Q0KL00 whole entry): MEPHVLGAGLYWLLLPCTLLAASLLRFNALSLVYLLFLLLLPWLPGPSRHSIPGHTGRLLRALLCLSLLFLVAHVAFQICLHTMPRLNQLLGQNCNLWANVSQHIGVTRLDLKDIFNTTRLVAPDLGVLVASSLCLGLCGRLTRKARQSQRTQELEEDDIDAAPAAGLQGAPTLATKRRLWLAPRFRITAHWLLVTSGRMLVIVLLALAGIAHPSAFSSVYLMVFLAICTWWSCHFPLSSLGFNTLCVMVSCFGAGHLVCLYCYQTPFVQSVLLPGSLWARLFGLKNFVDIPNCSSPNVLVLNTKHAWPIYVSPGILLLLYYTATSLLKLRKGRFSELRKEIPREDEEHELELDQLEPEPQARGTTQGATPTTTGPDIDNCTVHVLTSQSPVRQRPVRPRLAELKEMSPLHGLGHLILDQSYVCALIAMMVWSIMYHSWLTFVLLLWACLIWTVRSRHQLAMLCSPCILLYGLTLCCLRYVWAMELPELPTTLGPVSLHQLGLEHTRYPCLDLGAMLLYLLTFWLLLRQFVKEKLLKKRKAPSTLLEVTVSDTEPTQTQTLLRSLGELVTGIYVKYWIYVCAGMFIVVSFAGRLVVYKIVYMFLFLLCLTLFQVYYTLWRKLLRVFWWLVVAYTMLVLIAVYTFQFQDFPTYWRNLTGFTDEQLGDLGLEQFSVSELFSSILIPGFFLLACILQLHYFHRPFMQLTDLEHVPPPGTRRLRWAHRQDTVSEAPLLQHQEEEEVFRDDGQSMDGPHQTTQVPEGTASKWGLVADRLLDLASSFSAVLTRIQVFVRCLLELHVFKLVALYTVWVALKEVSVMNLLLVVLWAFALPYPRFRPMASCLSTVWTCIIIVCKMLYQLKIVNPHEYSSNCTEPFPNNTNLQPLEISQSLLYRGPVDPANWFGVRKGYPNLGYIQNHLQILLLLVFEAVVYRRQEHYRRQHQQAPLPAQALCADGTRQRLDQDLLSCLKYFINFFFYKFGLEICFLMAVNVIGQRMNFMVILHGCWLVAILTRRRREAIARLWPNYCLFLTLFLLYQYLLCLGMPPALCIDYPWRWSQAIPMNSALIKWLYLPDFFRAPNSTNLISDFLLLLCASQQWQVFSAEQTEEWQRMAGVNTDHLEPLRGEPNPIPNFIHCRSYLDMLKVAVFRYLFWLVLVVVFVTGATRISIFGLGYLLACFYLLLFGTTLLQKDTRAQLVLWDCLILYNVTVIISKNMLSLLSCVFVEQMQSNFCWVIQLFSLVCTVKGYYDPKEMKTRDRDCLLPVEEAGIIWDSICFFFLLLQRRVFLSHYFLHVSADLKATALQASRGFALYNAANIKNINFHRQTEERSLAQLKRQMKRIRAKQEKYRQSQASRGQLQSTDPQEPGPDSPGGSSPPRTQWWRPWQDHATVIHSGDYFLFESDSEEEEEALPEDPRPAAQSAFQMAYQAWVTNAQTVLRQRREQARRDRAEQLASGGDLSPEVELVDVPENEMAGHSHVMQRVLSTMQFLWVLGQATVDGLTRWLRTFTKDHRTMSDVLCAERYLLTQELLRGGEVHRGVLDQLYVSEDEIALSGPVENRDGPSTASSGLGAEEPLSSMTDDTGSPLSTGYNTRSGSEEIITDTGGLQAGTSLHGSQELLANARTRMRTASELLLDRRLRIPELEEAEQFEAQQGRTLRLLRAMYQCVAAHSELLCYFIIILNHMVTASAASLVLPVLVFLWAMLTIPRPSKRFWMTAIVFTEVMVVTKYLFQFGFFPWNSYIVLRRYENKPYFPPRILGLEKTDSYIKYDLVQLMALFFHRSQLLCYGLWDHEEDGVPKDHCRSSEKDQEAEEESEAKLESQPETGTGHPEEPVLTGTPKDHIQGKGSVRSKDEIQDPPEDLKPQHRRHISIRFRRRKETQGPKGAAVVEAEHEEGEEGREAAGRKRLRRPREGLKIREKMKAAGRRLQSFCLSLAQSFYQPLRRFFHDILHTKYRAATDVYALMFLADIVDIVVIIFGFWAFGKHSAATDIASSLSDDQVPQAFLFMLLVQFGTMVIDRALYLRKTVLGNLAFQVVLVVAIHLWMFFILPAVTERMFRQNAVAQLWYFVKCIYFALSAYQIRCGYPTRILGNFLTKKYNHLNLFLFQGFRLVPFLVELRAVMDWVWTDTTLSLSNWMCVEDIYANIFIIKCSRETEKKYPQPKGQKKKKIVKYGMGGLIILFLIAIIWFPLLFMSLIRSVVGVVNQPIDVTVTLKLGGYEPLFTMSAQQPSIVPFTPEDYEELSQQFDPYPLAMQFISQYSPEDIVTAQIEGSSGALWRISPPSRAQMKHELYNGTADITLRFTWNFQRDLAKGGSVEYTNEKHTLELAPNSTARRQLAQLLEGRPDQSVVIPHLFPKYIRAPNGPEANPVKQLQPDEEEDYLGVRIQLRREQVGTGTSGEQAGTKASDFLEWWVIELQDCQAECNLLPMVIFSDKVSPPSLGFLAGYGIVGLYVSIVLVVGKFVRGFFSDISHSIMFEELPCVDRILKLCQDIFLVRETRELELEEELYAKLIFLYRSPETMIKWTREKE

Regarding `Clc1cccc(Cl)c1CSc1nnc(-c2cnccn2)s1` [Yoda1], the EC50 was ~4 µM.

These data come from paper PMC6856185, “Piezo1 channel activation mimics high glucose as a stimulator of insulin release” (Scientific Reports, 2019).
